# In US12139492B2 (Endotarget Inc., priority 2021, dated 2024):
# Experiments:
# Mino cells = assay: Antiproliferative effect, MTS cell viability assay, Mino cells; format: cell-based; conditions: Homo sapiens, MINO, Mino mantle cell lymphoma cells; read-out: IC50 (anti-proliferation) Mino cells
# Procedure, shortened: (§1)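 Absorbance at 490 nm of formazan, formed by metabolically active cells from MTS tetrazolium, served as the viability measure after a 72 h treatment across a 0.001–10 μM concentration series plus untreated control.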
# JeKo-1 cells = assay: Antiproliferative effect, MTS cell viability assay, JeKo-1 cells; format: cell-based; conditions: Homo sapiens; JeKo-1 mantle cell lymphoma cells; read-out: IC50 (anti-proliferation) JeKO-1 cells
# Procedure, shortened: as §1
# BTK = BTK (Homo sapiens, UniProt Q06187); assay: Degradation of BTK protein in Namalwa cells (Western blot; DC50, Dmax); conditions: for DC50: BTK degradation, cell line not given
# Chain of BTK (Q06187 whole entry): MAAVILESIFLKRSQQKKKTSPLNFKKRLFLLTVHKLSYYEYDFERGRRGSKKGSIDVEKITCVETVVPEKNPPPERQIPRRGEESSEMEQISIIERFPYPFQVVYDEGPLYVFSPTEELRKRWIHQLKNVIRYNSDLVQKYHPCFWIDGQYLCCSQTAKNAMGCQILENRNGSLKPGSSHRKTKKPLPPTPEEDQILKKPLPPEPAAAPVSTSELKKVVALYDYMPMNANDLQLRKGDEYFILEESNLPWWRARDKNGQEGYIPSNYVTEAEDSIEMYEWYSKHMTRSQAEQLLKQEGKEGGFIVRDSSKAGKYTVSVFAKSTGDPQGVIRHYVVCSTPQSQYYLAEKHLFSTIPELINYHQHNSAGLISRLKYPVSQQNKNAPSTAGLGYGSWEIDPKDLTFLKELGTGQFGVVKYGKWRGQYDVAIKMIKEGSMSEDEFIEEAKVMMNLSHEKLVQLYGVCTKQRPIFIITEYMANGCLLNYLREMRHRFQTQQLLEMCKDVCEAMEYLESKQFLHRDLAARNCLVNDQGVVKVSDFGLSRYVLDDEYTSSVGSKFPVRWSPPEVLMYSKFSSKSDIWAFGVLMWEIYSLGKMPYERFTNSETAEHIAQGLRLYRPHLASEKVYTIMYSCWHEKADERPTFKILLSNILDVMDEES
Dmax (BTK) [%],DC50 (BTK) [nM],SMILES,IC50 (Mino cells) [nM],IC50 (JeKo-1 cells) [nM]
> 75,10 to 50,"NC(=O)c1c(-c2ccc(Oc3ccccc3)cc2)nn2c1NCC[C@H]2C1CCN(C2CCN(CCN3CCN(c4ccc5c(c4)C(=O)N(C4CCC(=O)NC4=O)C5=O)CC3)CC2)CC1 (stereo partly drawn) [Compound 323, (7S)-7-(1′-(2-(4-(2-(2,6-dioxopiperidin-3-yl)-1,3-dioxoisoindolin-5-yl)piperazin-1-yl)ethyl)-[1,4′-bipiperidin]-4-yl)-2-(4-phenoxyphenyl)-4,5,6,7-tetrahydropyrazolo[1,5-a]pyrimidine-3-carboxamide]",1000 to 10000,1000 to 10000
> 75,> 50,"NC(=O)c1c(-c2ccc(Oc3ccccc3)cc2)nn2c1NCC[C@H]2C1CCN(C2CCN(CCN3CCN(c4ccc5c(c4)CN(C4CCC(=O)NC4=O)C5=O)CC3)CC2)CC1 (stereo partly drawn) [Compound 324, (7S)-7-(1′-(2-(4-(2-(2,6-dioxopiperidin-3-yl)-1-oxoisoindolin-5-yl)piperazin-1-yl)ethyl)-[1,4′-bipiperidin]-4-yl)-2-(4-phenoxyphenyl)-4,5,6,7-tetrahydropyrazolo[1,5-a]pyrimidine-3-carboxamide]",1000 to 10000,1000 to 10000
> 90,10 to 50,NC(=O)c1c(-c2ccc(Oc3ccccc3)cc2)nn2c1NCC[C@H]2C1CCN(C2CCN(CCC3CCN(c4ccc5c(c4)C(=O)N(C4CCC(=O)NC4=O)C5=O)CC3)CC2)CC1 (stereo partly shown) [Compound 325],1000 to 10000,1000 to 10000
> 90,10 to 50,"NC(=O)c1c(-c2ccc(Oc3ccccc3)cc2)nn2c1NCC[C@H]2C1CCN(C2CCN(CCC3CCN(c4ccc5c(c4)CN(C4CCC(=O)NC4=O)C5=O)CC3)CC2)CC1 (stereo partly drawn) [Compound 326, (7S)-7-(1′-(2-(1-(2-(2,6-dioxopiperidin-3-yl)-1-oxoisoindolin-5-yl)piperidin-4-yl)ethyl)-[1,4′-bipiperidin]-4-yl)-2-(4-phenoxyphenyl)-4,5,6,7-tetrahydropyrazolo[1,5-a]pyrimidine-3-carboxamide]",1000 to 10000,1000 to 10000
> 75,10 to 50,"NC(=O)c1c(-c2ccc(Oc3ccccc3)cc2)nn2c1NCC[C@H]2C1CCN(C2CCN(CCN3CCC(c4ccc5c(c4)C(=O)N(C4CCC(=O)NC4=O)C5=O)CC3)CC2)CC1 (stereo partly drawn) [Compound 327, (7S)-7-(1′-(2-(4-(2-(2,6-dioxopiperidin-3-yl)-1,3-dioxoisoindolin-5-yl)piperidin-1-yl)ethyl)-[1,4′-bipiperidin]-4-yl)-2-(4-phenoxyphenyl)-4,5,6,7-tetrahydropyrazolo[1,5-a]pyrimidine-3-carboxamide]",1000 to 10000,> 10000
> 75,10 to 50,"NC(=O)c1c(-c2ccc(Oc3ccccc3)cc2)nn2c1NCC[C@H]2C1CCN(C2CCN(CCN3CCC(c4ccc5c(c4)CN(C4CCC(=O)NC4=O)C5=O)CC3)CC2)CC1 (stereo partly drawn) [Compound 328, (7S)-7-(1′-(2-(4-(2-(2,6-dioxopiperidin-3-yl)-1-oxoisoindolin-5-yl)piperidin-1-yl)ethyl)-[1,4′-bipiperidin]-4-yl)-2-(4-phenoxyphenyl)-4,5,6,7-tetrahydropyrazolo[1,5-a]pyrimidine-3-carboxamide]",1000 to 10000,1000 to 10000
> 75,10 to 50,"NC(=O)c1c(-c2ccc(Oc3ccccc3)cc2)nn2c1NCC[C@H]2C1CCN(CC2CCN(CC3CCN(c4ccc5c(c4)C(=O)N(C4CCC(=O)NC4=O)C5=O)CC3)CC2)CC1 (stereo partly drawn) [Compound 329, (7S)-7-(1-((1-((1-(2-(2,6-dioxopiperidin-3-yl)-1,3-dioxoisoindolin-5-yl)piperidin-4-yl)methyl)piperidin-4-yl)methyl)piperidin-4-yl)-2-(4-phenoxyphenyl)-4,5,6,7-tetrahydropyrazolo[1,5-a]pyrimidine-3-carboxamide]",> 10000,> 10000
